We go through 16 compounds from patent publication US8178678B2, “Bis-quaternary ammonium salts and methods for modulating neuronal nicotinic acetylcholine receptors” (University of Kentucky Research Foundation, priority 2006, dated 2012).

Broadly, the inhibition is how much of the control response was suppressed.

Test [1] deals with T1, Rat Striatal Nicotinic Receptors ([^3H]MLA binding sites; α7) (Rattus norvegicus, UniProt Q05941).
T1 construct: Whole brain, excluding cortex and cerebellum, was homogenized in 20 vol of ice-cold buffer; from tissue; host or cells: rat brain membranes (whole brain excluding cortex and cerebellum)
Nature of the test: Inhibition of [^3H]MLA (methyllycaconitine) binding. The note with it: 100 nM analog; [^3H]MLA; nonspecific S-nicotine; rat brain membranes; read-out: [^3H]MLA binding, % inhibition. Here is the method: Homogenate was centrifuged (25,000 g, 15 min, 4° C). Pellets were resuspended in 20 vol buffer and incubated at 37° C., for 10 min, cooled to 4° C. and centrifuged (25,000 g, 15 min, 4° C.). Pellets were resuspended and centrifuged using the same conditions. […] Upon use, final pellets were resuspended in 20 vol assay buffer. Samples (250 μl) contained 100-140 μg of membrane protein, 3 nM [^3H]-S-nicotine or 3 nM [^3H]-methyllycaconitine (MLA), and bis-quaternary ammonium analog (100 nM) in assay buffer containing 50 mM Tris. Control was in the absence of analog. In [^3H]-S-nicotine and [^3H]-methyllycaconitine binding assays, nonspecific binding was determined in the presence of 10 μM cytisine and 10 μM S-nicotine, respectively. Incubations proceeded for 60 min at room temperature using 96-well plates and were terminated by harvesting on Unifilter-96 GF/B filter plates presoaked in 0.5% polyethylenimine, using a Packard FilterMate harvester. After washing 5 times with 350 μl ice-cold assay buffer, filter plates were dried (60 min, 4° C.), bottom-sealed, and filled with Packard's MicroScint 20 cocktail (40 μl/well). After 60 min, filter plates were top-sealed, and radioactivity determined using a Packard TopCount. Protein concentrations were determined using the Bradford dye-binding procedure bovine serum albumin as the standard. […]

Test [2] relates to nicotinic receptors mediating S-nicotine-evoked [^3H]DA release in rat striatal slices. Nature of the test: Inhibition of S-nicotine-evoked [^3H]dopamine release from superfused rat striatal slices. The class given is cell-based. The note with it: 1 h; 100 nM analog superfused 60 min before NIC 10 μM; rat striatal slices; read-out: [^3H]DA release, % inhibition of S-nicotine-evoked release. Here is the method:
Rat striatal slices (500 μm thickness, 6-8 mg wet weight) were incubated for 30 minutes in Krebs buffer (118 mM NaCl, 4.7 mM KCl, 1.2 mM MgCl2, 1.0 mM NaH2PO4, 1.3 mM CaCl2, 11.1 mM glucose, 25 mM NaHCO3, 0.11 mM L-ascorbic acid, and 0.004 mM disodium EDTA; pH 7.4, and saturated with 95% O2/5% CO2) in a metabolic shaker at 34° C. Slices were rinsed with 15 mL of fresh buffer and incubated for an additional 30 minutes in fresh buffer containing 0.1 μM [^3H]dopamine (DA; 6 slices/3 mL). Subsequently, slices were rinsed with 15 mL of fresh buffer and transferred to a glass superfusion chamber. Slices were superfused (1.0 mL/min) for 60 minutes with Krebs buffer containing nomifensine (10 μM) and pargyline (10 μM) and maintained at 34° C., pH 7.4, with continual aeration (95% O2/5% CO2). Two five minute samples (5 mL each) were collected to determine basal outflow of [^3H]DA. The bis-quaternary ammonium analogs were added to the superfusion buffer after the collection of the second sample and remained in the buffer until 12 consecutive five minute samples were collected. Subsequently, S-nicotine (NIC; 10 μM) was added to the buffer and an additional 12 consecutive five minute samples were collected. At the end of the experiment, each slice was solubilized and the [^3H] content of the tissue determined.
Radioactivity in the superfusate and tissue samples was determined by liquid scintillation spectroscopy. Fractional release for tritium collected in each sample was divided by the total tritium present in the tissue at the time of sample collection and was expressed as a percentage of total tritium. Basal [^3H]outflow was calculated from the average of the tritium collected in the two five minute samples just before addition of the quaternary analog. The sum of the increase in collected tritium resulting from either exposure to the test compound or exposure to S-nicotine in the absence and presence of the test compound equaled total [^3H]overflow. [^3H]Overflow was calculated by subtracting the [^3H]outflow during an equivalent period of prestimulation from the values in samples collected during and after drug exposure. Inasmuch as the radiolabelled compounds were not separated and identified, the tritium collected in superfusate is referred to as either [3H]outflow or [^3H]overflow, rather than as [^3H]DA. [^3H]Overflow primarily represents [^3H]DA in the presence of nomifensine and pargyline in the superfusion buffer.
The bis-quaternary ammonium analogs were also evaluated for their ability to inhibit NIC evoked [^3H]DA release. In these experiments, the striatal slices were superfused for 60 minutes with 100 nM concentration of the quaternary analogs prior to NIC (10 μM) exposure. Antagonist activity was evaluated by comparing the NIC-evoked [^3 H]overflow in the absence and presence of the analogs. The relative order of potency of the quaternary analogs for inhibition of NIC-evoked [^3H]DA release from rat striatal slices is illustrated in Table 1.
^aData are % inhibition at 100 nM concentration of the bis-quaternary ammonium analogs for at least 1-3 independent experiments; with the exception of when a Ki value in μM is provided, in which case a full concentration effect was evaluated. Specific binding in the [^3H]NIC binding assay is calculated as the difference between the total binding of 3 nM [^3H]NIC and nonspecific binding in the presence of 10 μM cold cytisine. Specific binding for the [^3H]MLA binding assay is calculated as the difference between the total binding of […] [^3H]MLA to the receptors alone and its nonspecific binding in the presence of […] cold S-nicotine. Analog-induced inhibition of S-nicotine-evoked [^3H]DA release is calculated as a percent of that in the absence of the bis-quaternary ammonium analog.

Test [3] deals with T2, Rat Striatal Nicotinic Receptors ([^3H]NIC binding sites; α4β2) (Rattus norvegicus, UniProt P09483+P12390).
T2 construct: Whole brain, excluding cortex and cerebellum, was homogenized in 20 vol of ice-cold buffer; from tissue; host or cells: rat brain membranes (whole brain excluding cortex and cerebellum)
Briefly: Inhibition of [^3H]NIC binding. The conditions noted are these: 1 h; 100 nM analog; 3 nM [^3H]NIC; nonspecific 10 μM cytisine; rat brain membranes. Here is the method: Homogenate was centrifuged (25,000 g, 15 min, 4° C). Pellets were resuspended in 20 vol buffer and incubated at 37° C., for 10 min, cooled to 4° C. and centrifuged (25,000 g, 15 min, 4° C.). Pellets were resuspended and centrifuged using the same conditions. […] Upon use, final pellets were resuspended in 20 vol assay buffer. Samples (250 μl) contained 100-140 μg of membrane protein, 3 nM [^3H]-S-nicotine or 3 nM [^3H]-methyllycaconitine (MLA), and bis-quaternary ammonium analog (100 nM) in assay buffer containing 50 mM Tris. Control was in the absence of analog. In [^3H]-S-nicotine and [^3H]-methyllycaconitine binding assays, nonspecific binding was determined in the presence of 10 μM cytisine and 10 μM S-nicotine, respectively. Incubations proceeded for 60 min at room temperature using 96-well plates and were terminated by harvesting on Unifilter-96 GF/B filter plates presoaked in 0.5% polyethylenimine, using a Packard FilterMate harvester. After washing 5 times with 350 μl ice-cold assay buffer, filter plates were dried (60 min, 4° C.), bottom-sealed, and filled with Packard's MicroScint 20 cocktail (40 μl/well). After 60 min, filter plates were top-sealed, and radioactivity determined using a Packard TopCount. Protein concentrations were determined using the Bradford dye-binding procedure bovine serum albumin as the standard.
Specific binding in the [^3H]NIC binding assay is calculated as the difference between the total binding of 3 nM [^3H]NIC and nonspecific binding in the presence of 10 μM cold cytisine. […] Analog-induced inhibition of S-nicotine-evoked [^3H]DA release is calculated as a percent of that in the absence of the bis-quaternary ammonium analog.

T2 sequence (P09483 31-630): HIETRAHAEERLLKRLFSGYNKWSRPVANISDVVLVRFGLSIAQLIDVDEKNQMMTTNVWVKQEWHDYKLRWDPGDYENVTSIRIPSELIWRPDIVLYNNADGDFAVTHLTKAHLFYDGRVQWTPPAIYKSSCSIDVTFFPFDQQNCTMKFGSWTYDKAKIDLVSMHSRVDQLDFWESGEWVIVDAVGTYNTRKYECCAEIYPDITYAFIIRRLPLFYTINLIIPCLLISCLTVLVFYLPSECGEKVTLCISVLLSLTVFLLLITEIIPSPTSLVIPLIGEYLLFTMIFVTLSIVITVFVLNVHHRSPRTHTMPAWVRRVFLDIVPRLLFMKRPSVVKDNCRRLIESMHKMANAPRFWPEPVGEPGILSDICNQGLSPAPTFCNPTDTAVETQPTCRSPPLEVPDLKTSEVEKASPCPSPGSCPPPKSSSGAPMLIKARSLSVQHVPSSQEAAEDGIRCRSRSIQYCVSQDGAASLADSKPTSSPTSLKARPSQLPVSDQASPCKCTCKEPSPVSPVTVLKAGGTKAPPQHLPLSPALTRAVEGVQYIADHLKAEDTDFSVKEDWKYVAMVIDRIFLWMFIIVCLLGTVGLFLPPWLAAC
T2 sequence (P12390 25-500): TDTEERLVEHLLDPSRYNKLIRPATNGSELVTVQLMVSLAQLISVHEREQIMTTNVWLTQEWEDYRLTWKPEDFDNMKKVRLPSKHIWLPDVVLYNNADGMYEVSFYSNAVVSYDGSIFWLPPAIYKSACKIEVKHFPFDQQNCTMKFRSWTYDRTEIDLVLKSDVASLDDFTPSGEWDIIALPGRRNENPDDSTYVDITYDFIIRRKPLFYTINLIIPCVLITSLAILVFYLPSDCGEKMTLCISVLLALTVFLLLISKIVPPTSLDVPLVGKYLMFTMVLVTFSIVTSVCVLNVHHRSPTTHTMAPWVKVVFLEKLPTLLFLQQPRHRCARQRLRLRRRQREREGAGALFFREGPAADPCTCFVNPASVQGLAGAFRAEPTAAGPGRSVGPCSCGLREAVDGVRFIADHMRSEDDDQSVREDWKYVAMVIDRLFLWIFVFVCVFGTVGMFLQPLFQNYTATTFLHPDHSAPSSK
T1 sequence (Q05941 23-502): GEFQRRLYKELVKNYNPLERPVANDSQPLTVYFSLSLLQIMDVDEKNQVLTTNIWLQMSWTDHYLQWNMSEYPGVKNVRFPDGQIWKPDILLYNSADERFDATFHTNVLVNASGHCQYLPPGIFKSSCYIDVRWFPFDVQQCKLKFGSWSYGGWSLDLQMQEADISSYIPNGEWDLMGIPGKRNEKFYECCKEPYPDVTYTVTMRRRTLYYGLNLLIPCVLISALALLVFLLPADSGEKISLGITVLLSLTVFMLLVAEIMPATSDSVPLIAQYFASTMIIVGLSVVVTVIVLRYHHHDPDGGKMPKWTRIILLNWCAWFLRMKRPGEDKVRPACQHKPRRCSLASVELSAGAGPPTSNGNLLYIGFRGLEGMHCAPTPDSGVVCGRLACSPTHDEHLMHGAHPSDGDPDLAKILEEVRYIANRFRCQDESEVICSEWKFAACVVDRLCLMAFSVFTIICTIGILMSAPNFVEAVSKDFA

As for `Cc1cc(C)c[n+](CCC#Cc2ccc(C#CCC[n+]3cc(C)cc(C)c3)cc2)c1` [Example 101, N,N′-[(1,4-phenylene)-bis-(4-butynyl)]-bis-(3,5-dimethyl-pyridinium)dibromide], the values for the inhibition at 0.1 µM in test [1], in test [2] and in test [3] were 0%, 14% and 0%, respectively.

With `c1ccc(CCCCC[n+]2ccc3ccccc3c2)c(CCCCC[n+]2ccc3ccccc3c2)c1` [Example 41, 1,2-bis-(5-isoquinolinium-pentyl)-benzene dibromide], the inhibition at 0.1 µM in test [1] was 0%; in test [2], 54%; in test [3] it was 1.9%.

For `Cc1cc[n+](CCOCCOCCOCC[n+]2ccc(C)cc2)cc1` [Example 83, N,N′-{2,2′-[oxybis-(2,1-ethandiyloxy)]bis-ethyl}-bis(4-methylpyridinium)dichloride], the inhibition at 0.1 µM in test [1] was 7%; in test [2], 53%; in test [3], 15%.

For the compound `c1ccc(CCCCC[n+]2cccc3ccccc32)c(CCCCC[n+]2cccc3ccccc32)c1` [Example 40, 1,2-bis-(5-quinolinium-pentyl)-benzene dibromide], the inhibition at 0.1 µM in test [1] turned out to be 6.3%; in test [2] it was 24%; in test [3], 0%.

Take `Cc1cc[n+](CCCCCc2cccc(CCCCC[n+]3ccc(C)cc3C)c2)c(C)c1` [Example 65, 1,3-bis-[5-(2,4-dimethyl-pyridinium)-pentyl]-benzene dibromide]: the inhibition at 0.1 µM was 5.6% in test [1], 26% in test [2] and 0.5% in test [3].

Take `C(#Cc1ccccc1C#CCCC[n+]1cccc2ccccc21)CCC[n+]1cccc2ccccc21` [Example 29, 1,2-bis-(5-quinolinium-pent-1-ynyl)-benzene dibromide]: the inhibition at 0.1 µM in test [1] is 2.3%; in test [2] it was 20%; in test [3], 0%.

`Cc1cc[n+](CCCC#Cc2cccc(C#CCCC[n+]3ccc(C)cc3)c2)cc1` [Example 50, 1,3-bis-[5-(4-methyl-pyridinium)-pent-1-ynyl]-benzene dibromide]: the inhibition at 0.1 µM in test [1] was 6.4%; in test [2], 26%; in test [3], 10%.

`Cc1cc[n+](CCCCCc2cccc(CCCCC[n+]3ccc(C)c(C)c3)c2)cc1C` [Example 66, 1,3-bis-[5-(3,4dimethyl-pyridinium)-pentyl]-benzene dibromide]: the values for the inhibition at 0.1 µM in test [1], in test [2] and in test [3] were 7%, 35% and 10.5%, respectively.

Consider `Cc1cc[n+](CCCC#Cc2ccccc2C#CCCC[n+]2ccc(C)cc2)cc1` [Example 25, 1,2-bis-[5-(4-methyl-pyridinium)-pent-1-ynyl]-benzene dibromide], for which the inhibition at 0.1 µM in test [1] was found to be 5.4%; in test [2], 12%; in test [3], 2.5%.

Regarding `Cc1ccc[n+](CCCC#Cc2cccc(C#CCCC[n+]3cccc(C)c3)c2)c1` [Example 49, 1,3-bis-[5-(3-methyl-pyridinium)-pent-1-ynyl]-benzene dibromide], the inhibition at 0.1 µM in test [1] was determined as 8%; in test [2], 6%; in test [3], 0.5%.

As for `Brc1ccc[n+](CCCCCc2ccccc2CCCCC[n+]2cccc(Br)c2)c1` [Example 44, 1,2-bis-[5-(3-bromo-pyridinium)-pentyl]-benzene dibromide], the inhibition at 0.1 µM amounted to 0.9% in test [1], 7% in test [2] and 2.9% in test [3].

In the case of `Cc1cccc[n+]1CCCC#Cc1cccc(C#CCCC[n+]2ccccc2C)c1` [Example 48, 1,3-bis-[5-(2-methyl-pyridinium)-pent-1-ynyl]-benzene dibromide], the inhibition at 0.1 µM stood at 0% in test [1], 35% in test [2] and 1.9% in test [3].

Consider `Cc1cc(C)c[n+](CCCC/C=C\C=C/CCCC[n+]2cc(C)cc(C)c2)c1` [Example 9, cis-cis-N,N′-(dodeca-5,7-diene-1,12-diyl)-bis-(3,5-dimethyl-pyridinium)dibromide], for which the inhibition at 0.1 µM in test [1] and in test [3] was 0% each time.

Turning to `Cc1cc[n+](CCCc2ccc(-c3ccc(CCC[n+]4ccc(C)cc4C)cc3)cc2)c(C)c1` [Example 73, N,N′-[(1,1′-biphenyl)-4,4′-di-(3-propanyl)]-bis-(2,4dimethylpyridinium)dibromide], the results for the inhibition at 0.1 µM in test [1] and in test [3] were 0.6% and 3%, respectively.

For the compound `c1cc2c([n+](CCOCCOCCOCC[n+]3cccc4c3CCCC4)c1)CCCC2` [Example 84, N,N′-{2,2′-[oxybis-(2,1-ethandiyloxy)]bis-ethyl}-bis(5,6,7,8-tetrahydroquinolinium)dichloride], the results for the inhibition at 0.1 µM in test [1] and in test [3] were 4.7% and 0%, respectively.

Consider `Cc1cc[n+](CC#Cc2ccc(-c3ccc(C#CC[n+]4ccc(C)cc4)cc3)cc2)cc1` [Example 103, N,N′-[(1,1′-biphenyl)-4,4′-di-(1-propyn-3-yl)]-bis-(4-methylpyridinium)dibromide], for which the inhibition at 0.1 µM in test [1] worked out at 12%; in test [3], 9.6%.
